# Data taken from US20190358181A1, “METHODS FOR AUTISM SPECTRUM DISORDER PHARMACOTHERAPY” (priority 2017, published 2019).
# Where two headings read alike, the source gives them in different places.
# Experiment: Suramin plasma pharmacokinetics by LC-MS/MS, two compartment population PK model, pediatric patients
# Type: in vivo, human
# Settings: for concentration at 1 h: read-out: 1-Hour Plasma Conc; for concentration at 45 days: read-out: 45-Day Plasma Conc; for concentration at 2 days: read-out: 2-Day Plasma Conc
# Method: For the test dose, 50 mg of suramin hexasodium (Bayer Pharmaceuticals, Inc.) in 5 mL of saline (experimental arm, 5 patients), or 5 mL of saline only (control arm, 5 patients) were given by slow intravenous (IV) push over 3 minutes, followed by a 10 mL flush of saline. One hour after the test dose, vital signs were repeated and a single infusion of either suramin (20 mg/kg, minus the 50 mg test dose, in 50 mL, up to a maximum of 1 gram) or saline (50 mL IV) was given over 30 minutes, followed by a 10 mL flush of saline.
# Suramin pharmacokinetics was assessed by serum isolation at the 4 time points immediately before and after the infusion. […] Unexpected and adverse events were recorded as they occurred and graded in severity according to the National Cancer Institute Common Terminology Criteria for Adverse Events v4.03 (CTCAE) scale. Additional pharmacovigilence monitoring included daily scripted phone calls in the first week, then 4 weekly calls until the exit examinations at 6 weeks.
# Heparinized plasma, 90 μl was prepared for LC-MS/MS analysis. Ten (10) μl of 50 μM stock of trypan blue was added to achieve an internal standard concentration of 5μM. This was incubated at room temperature for 10 min to permit metabolite interaction with binding proteins, then extracted with 4 volumes (400 μl) of pre-chilled methanol-acetonitrile (50:50) to produce a final concentration of 40:40:20 (methanol:acetonitrile:H2O), and precipitated on ice for 10 minutes. The samples were deproteinated and macromolecules removed by precipitation on crushed ice for 10 min.
# The mixture was centrifuged at 16,000g for 10 min at 4° C. and the supernatant was transferred to a new tube and kept at −80° C. for further LC-MS/MS analysis.
# Suramin was detected in the prepared samples on an AB SCIEX QTRAP 5500 triple quadrupole mass spectrometer equipped with a Turbo V electrospray ionization (ESI) source, Shimadzu LC-20A UHPLC system, and a PAL CTC autosampler. […] The mobile phase A was water with 20 mM ammonium acetate (NH4OAC) (pH 7) and mobile phase B was methanol with 20 mM NH4OAC (pH 7). […] The flow rate was 400 μl/min. All the samples were kept at 4° C. during analysis. Suramin and trypan blue were detected using MRM scanning mode with the dwell time of 180 ms. […] Absolute concentrations of suramin were determined using a standard curve prepared in plasma to account for matrix effects, and the peak area ratio of suramin to the internal standard trypan blue. […] The ESI source parameters were set as follows: source temperature 500° C.; curtain gas 30; ion source gas 1, 35; ion source gas 2 35; spray voltage −4500 V. Analyst v1.6 was used for data acquisition and analysis.
# The small number of PK samples per subject prevented a standard, non-compartmental analysis in individual subjects. The suramin drug concentrations were analyzed using a population PK approach with post-hoc empiric Bayesian estimate of PK parameters in individual subjects. The PK data were fit to a two compartment model using the computer program NONMEM (ICON, Dublin, Ireland). PK parameters were scaled allometrically with volume terms scaled to linear body weight (kg1.0) and clearance terms scaled to weight (kg0.75). Scaled adult suramin parameters of compartmental volumes of distribution and clearance were used as initial parameter estimates and between subject variability only estimated for clearance (CL) and the peripheral volume of distribution (Vd).
# [1] = human, plasma, iv, 20 mg/kg, Mean of 5 subjects, 20 mg/kg (558 mg/m^2) IV
# [2] = human, plasma, iv, 460 mg, ID 007, 460 mg (529 mg/m^2) IV
# [3] = human, plasma, iv, 460 mg, ID 012, 460 mg (529 mg/m^2) IV
# [4] = human, plasma, iv, 500 mg, ID 005, 500 mg (526 mg/m^2) IV
# [5] = human, plasma, iv, 680 mg, ID 001, 680 mg (591 mg/m^2) IV
# [6] = human, plasma, iv, 1000 mg, ID 014, 1000 mg (613 mg/m^2) IV
# [7] = human, plasma, Mean of 5 subjects, 20 mg/kg (558 mg/m^2) IV
smiles,measurement,setting,value
"Cc1ccc(C(=O)Nc2ccc(S(=O)(=O)O)c3cc(S(=O)(=O)O)cc(S(=O)(=O)O)c23)cc1NC(=O)c1cccc(NC(=O)Nc2cccc(C(=O)Nc3cc(C(=O)Nc4ccc(S(=O)(=O)O)c5cc(S(=O)(=O)O)cc(S(=O)(=O)O)c45)ccc3C)c2)c1 [Suramin, suramin]",clearance,20 mg/kg IV,0.056±0.011 L/hr/m2
same,steady-state volume of distribution,20 mg/kg IV,22.7±2.6 L/m2
same,suramin levels,"before Day 2, all subjects",below 100 μM
same,plasma concentrations maintained,between 2 days and 5-6 weeks following the dose,1.5 to 15 µM
same,half-life,"human, plasma, iv, 20 mg/kg, 20 mg/kg IV, read-out: alpha (distribution) phase half-life (converted)",0.308 ± 0.0229 days
same,concentration at 1 h,[1],104 µM
same,concentration at 45 days,[1],1.54 µM
same,half-life,"human, plasma, iv, 20 mg/kg, Mean of 5 subjects, 20 mg/kg (558 mg/m^2) IV, read-out: Plasma Half-Life (terminal elimination phase half-life) (converted)",14.7 days
same,concentration at 1 h,[2],87.9 µM
same,concentration at 2 days,[2],11.9 µM
same,concentration at 45 days,[2],1.67 µM
same,concentration at 1 h,[3],119 µM
same,concentration at 2 days,[3],13.8 µM
same,concentration at 45 days,[3],2.28 µM
same,half-life,"human, plasma, iv, 460 mg, ID 012, 460 mg (529 mg/m^2) IV, read-out: Plasma Half-Life (converted)",16.5 days
same,concentration at 1 h,[4],102 µM
same,concentration at 2 days,[4],10.6 µM
same,concentration at 45 days,[4],1.76 µM
same,half-life,"human, plasma, iv, 500 mg, ID 005, 500 mg (526 mg/m^2) IV, read-out: Plasma Half-Life (converted)",15 days
same,concentration at 1 h,[5],101 µM
same,concentration at 2 days,[5],13.2 µM
same,concentration at 45 days,[5],0.96 µM
same,half-life,"human, plasma, iv, 680 mg, ID 001, 680 mg (591 mg/m^2) IV, read-out: Plasma Half-Life (converted)",12.6 days
same,concentration at 1 h,[6],111 µM
same,concentration at 2 days,[6],10.6 µM
same,concentration at 45 days,[6],1.04 µM
same,half-life,"human, plasma, iv, 1000 mg, ID 014, 1000 mg (613 mg/m^2) IV, read-out: Plasma Half-Life (converted)",14.9 days
same,clearance,"human, plasma, 20 mg/kg IV, read-out: clearance (converted)",1.95 mL/h/kg
same,Vd,"human, plasma, 20 mg/kg IV, read-out: steady-state volume of distribution",0.83 ± 0.014 L/kg
same,concentration at 1 h,[7],104 ± 11.6 µM
same,concentration at 2 days,[7],12 ± 1.5 µM
